Measurements published in ChEMBL document CHEMBL1201862, “PubChem BioAssay data set” (2004).
The source made the active and inactive calls.

Columns and labels:
[1] = microbe, parasite or virus in culture; format: functional; details: Mycobacterium tuberculosis
[2] = biological target: T1, Leucine aminopeptidase (Plasmodium falciparum 3D7, UniProt Q8IL11); experiment: P. falciparum M17LAP inhibitors, primary screen, biochemical, fluorogenic H-Leu-NHMec substrate, 1536-well (AID 1619); format: functional
T1 sequence (Q8IL11 whole entry): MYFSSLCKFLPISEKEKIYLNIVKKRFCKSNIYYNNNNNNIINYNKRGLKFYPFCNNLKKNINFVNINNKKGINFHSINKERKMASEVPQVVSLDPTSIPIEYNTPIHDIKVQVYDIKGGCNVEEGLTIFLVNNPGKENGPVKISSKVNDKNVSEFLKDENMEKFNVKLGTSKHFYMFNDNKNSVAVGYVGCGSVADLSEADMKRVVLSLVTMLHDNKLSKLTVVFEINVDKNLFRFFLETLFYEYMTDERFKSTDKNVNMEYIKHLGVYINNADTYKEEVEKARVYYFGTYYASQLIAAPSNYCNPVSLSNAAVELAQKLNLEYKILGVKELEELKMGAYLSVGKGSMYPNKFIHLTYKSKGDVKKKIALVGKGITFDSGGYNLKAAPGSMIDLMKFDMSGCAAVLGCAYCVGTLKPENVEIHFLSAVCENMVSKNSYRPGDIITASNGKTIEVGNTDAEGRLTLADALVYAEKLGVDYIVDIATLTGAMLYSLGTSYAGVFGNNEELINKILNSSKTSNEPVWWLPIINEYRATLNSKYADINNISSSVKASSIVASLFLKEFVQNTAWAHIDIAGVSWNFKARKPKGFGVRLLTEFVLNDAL

[3] = HIV-1 AD8 envelope cell-cell fusion blockers – cherry-pick, dose response (AID 652062); format: functional, cell-based;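 note: luciferase signal from cell-cell fusion driven by HIV-1 clade B AD8 Env; potency is for inhibitors of fusion seen as a drop in luminescence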
[4] = test system: HEK293; experiment: EBV LMP1 TES2 canonical NF-kB signalling blockers – cell-based, HEK293, luciferase, cherry-pick, dose response (AID 588343); format: functional; details: Homo sapiens
[5] = biological target: Nonstructural protein 1 (Influenza A virus, UniProt Q194T2); format: functional, Influenza A virus (A/California/07/2009(H1N1))
Nonstructural protein 1, sequence (Q194T2 whole entry): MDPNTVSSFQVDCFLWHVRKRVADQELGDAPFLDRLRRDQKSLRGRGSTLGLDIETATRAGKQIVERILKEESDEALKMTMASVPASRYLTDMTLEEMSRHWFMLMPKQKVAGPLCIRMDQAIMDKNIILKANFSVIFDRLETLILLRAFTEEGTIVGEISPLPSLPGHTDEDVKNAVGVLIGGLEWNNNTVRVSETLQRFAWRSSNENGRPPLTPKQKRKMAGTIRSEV

[6] = biological target: T2, Rac GTPase-activating protein 1 (Homo sapiens, UniProt Q9H0H5); experiment: blockers of MgcRacGAP-driven Rac1 GTP hydrolysis – biochemical, ADP Hunter fluorescence, primary and confirmatory, confirmation (AID 624330); format: functional
T2 sequence (Q9H0H5 whole entry): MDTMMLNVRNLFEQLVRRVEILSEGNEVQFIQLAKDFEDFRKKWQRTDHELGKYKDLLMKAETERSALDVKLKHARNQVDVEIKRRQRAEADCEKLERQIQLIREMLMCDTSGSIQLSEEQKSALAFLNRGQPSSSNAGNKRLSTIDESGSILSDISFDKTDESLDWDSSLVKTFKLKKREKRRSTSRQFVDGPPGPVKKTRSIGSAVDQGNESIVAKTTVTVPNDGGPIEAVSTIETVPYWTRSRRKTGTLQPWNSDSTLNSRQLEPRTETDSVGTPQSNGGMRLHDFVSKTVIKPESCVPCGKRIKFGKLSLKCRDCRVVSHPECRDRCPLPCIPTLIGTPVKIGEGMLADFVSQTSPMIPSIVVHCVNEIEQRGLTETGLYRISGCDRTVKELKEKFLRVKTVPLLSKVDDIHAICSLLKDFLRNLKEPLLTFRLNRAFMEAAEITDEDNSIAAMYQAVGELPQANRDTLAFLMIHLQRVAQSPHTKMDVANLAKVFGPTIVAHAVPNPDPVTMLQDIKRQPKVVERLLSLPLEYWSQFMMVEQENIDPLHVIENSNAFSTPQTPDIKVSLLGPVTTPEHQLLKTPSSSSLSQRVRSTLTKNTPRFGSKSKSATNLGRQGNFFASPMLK

[7] = cells; format: functional, cell-based
[8] = cells; format: functional, cell-based; remark: listed apart in the source
[9] = test system: Vero; experiment: cells; format: functional; details: Chlorocebus sabaeus
[10] = biological target: T3, Heat shock factor protein 1 (Mus musculus, UniProt P38532); experiment: decrease of HSF1-responsive luciferase luminescence – cell-based, NIH3T3, dose retest, confirmation (AID 2382); format: functional;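 note: NIH3T3 fibroblasts with HSF1-driven luciferase reporter stressed by proteasome inhibitor MG132; luminescence from HSF1-driven luciferase expression after 8 hours of MG132 stress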
T3 sequence (P38532 whole entry): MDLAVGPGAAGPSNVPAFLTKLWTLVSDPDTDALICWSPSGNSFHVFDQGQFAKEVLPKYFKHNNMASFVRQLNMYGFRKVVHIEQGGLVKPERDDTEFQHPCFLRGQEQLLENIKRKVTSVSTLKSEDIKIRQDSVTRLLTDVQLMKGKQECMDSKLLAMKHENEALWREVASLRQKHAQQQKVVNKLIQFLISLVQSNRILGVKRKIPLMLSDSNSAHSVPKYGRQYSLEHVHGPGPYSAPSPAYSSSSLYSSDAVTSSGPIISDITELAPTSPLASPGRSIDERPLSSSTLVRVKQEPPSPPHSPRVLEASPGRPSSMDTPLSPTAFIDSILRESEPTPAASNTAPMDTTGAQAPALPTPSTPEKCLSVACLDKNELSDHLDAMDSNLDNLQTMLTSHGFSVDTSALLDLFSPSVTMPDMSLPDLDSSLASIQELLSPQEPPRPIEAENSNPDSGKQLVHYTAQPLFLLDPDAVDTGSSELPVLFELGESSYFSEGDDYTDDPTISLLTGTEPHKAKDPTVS

[11] = viability of HCT116 lacking mutant beta-catenin – cell-based, human colon tumor, dose response (AID 1045); format: functional;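 note: HCT116 colon tumor cells with beta catenin knocked out; cells exposed to compound for 60 hours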
[12] = viability of PTEN-deleted HCT116 cells – cell-based, HCT116 PTEN knockout, dose response (AID 1047); format: functional;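 note: HCT116 colon tumor cells with PTEN knocked out; cells exposed to compound for 60 hours before readout; potency for loss of cell viability measured by luminescence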
[13] = Luminescence Cell-Based Dose Retest to Confirm Inhibitors of Cancer Stem Cells. [Related pubchem assays (depositor defined):AID2717, AID2721]; format: functional; details: Homo sapiens
[14] = viability of uninfected HEp-2 cells – cell-based, HTS, cytotoxicity control for RSV inhibitor project, dose response (AID 2410); format: functional; details: human respiratory syncytial virus
[15] = NIH-3T3 fibroblast cytotoxicity, dose response, cytotoxicity control, cell-based, fluorescence, Alamar Blue, secondary assay (AID 2327); format: functional;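 note: NIH-3T3 mouse fibroblasts cultured with fluconazole at 8 µg/mL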
[16] = biological target: Heat shock protein HSP 90-alpha (Homo sapiens, UniProt P07900); format: functional, organism-based
[17] = fluconazole-exposed Candida albicans growth modulators – fluorescence, retest, confirmation (AID 2467); format: functional, cell-based
[18] = biological target: Cytochrome P450 2C9 (Homo sapiens, UniProt P11712)
Cytochrome P450 2C9, sequence (P11712 whole entry): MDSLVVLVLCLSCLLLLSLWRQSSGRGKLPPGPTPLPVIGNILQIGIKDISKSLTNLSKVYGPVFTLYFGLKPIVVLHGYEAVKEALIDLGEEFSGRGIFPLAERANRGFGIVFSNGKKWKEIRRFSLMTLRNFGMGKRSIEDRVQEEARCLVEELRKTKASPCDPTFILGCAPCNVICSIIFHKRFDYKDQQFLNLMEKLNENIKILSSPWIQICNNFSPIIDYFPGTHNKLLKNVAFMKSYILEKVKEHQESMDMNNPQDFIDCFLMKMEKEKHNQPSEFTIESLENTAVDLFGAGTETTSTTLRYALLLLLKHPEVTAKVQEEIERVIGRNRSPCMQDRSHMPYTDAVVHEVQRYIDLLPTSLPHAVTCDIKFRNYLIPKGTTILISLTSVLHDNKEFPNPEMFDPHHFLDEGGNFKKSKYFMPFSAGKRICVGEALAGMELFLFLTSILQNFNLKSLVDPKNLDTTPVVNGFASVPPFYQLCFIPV

[19] = biological target: T4, Aminopeptidase N (Plasmodium falciparum FcB1/Columbia, UniProt O96935); experiment: malaria alanyl aminopeptidase activity blockers – biochemical, fluorogenic H-Leu-NHMec substrate, 1536-well (AID 1445); design: species or system Plasmodium falciparum 3D7, 3D7
T4 sequence (O96935 whole entry): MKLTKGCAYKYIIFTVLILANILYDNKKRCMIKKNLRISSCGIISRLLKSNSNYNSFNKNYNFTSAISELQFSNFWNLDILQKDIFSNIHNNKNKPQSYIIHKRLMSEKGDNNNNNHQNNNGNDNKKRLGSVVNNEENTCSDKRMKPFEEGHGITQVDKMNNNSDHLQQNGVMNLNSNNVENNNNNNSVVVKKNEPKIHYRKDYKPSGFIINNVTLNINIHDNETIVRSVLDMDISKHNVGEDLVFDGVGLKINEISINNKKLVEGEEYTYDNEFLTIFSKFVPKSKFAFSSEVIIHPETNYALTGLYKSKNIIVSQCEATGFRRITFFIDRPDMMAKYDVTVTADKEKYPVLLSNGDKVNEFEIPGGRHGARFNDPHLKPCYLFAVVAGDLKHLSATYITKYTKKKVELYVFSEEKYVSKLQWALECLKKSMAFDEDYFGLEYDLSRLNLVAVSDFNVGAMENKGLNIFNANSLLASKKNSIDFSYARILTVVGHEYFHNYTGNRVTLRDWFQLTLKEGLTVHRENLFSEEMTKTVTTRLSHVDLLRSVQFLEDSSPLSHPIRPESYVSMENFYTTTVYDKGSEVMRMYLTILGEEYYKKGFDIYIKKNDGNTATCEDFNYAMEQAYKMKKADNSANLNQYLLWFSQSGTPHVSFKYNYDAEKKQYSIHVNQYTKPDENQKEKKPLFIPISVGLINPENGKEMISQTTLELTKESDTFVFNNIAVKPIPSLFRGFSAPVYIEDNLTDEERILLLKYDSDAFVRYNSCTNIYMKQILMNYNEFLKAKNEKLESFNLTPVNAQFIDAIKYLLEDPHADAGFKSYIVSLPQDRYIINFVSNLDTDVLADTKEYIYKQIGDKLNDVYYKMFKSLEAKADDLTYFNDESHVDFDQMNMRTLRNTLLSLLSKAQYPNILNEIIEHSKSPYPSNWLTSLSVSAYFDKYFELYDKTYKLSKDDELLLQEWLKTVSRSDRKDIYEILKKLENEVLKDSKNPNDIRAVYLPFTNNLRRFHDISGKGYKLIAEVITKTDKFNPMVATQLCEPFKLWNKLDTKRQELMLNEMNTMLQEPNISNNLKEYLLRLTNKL

[20] = biological target: Cytochrome P450 2D6 (Homo sapiens, UniProt P10635);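 note: CYP2D6 member of a cytochrome P450 panel assay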
Cytochrome P450 2D6, sequence (P10635 whole entry): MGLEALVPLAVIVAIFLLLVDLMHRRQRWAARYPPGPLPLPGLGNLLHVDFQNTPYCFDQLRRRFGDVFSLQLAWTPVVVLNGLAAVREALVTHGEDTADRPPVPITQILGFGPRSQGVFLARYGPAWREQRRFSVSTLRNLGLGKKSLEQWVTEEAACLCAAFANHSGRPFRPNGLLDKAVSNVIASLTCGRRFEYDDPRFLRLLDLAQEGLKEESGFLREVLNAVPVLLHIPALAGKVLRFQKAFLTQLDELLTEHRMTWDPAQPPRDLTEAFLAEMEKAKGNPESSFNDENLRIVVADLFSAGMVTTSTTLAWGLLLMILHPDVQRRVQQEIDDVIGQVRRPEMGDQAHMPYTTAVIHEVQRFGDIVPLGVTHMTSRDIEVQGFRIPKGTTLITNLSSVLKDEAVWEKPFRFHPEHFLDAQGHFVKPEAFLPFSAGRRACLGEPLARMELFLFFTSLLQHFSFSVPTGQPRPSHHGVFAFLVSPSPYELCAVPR

## CCC(=O)NC(=S)Nc1ccc(NC(=O)COc2ccc(Cl)cc2Cl)cc1
[1]
  CC50: 39.6 µM (active)

## O=C(CSc1nnc(NC(=O)c2c(F)cccc2F)s1)Nc1ccc(F)cc1
[2]
  IC50: 32.3 µM (active)

## Cc1onc(-c2ccccc2)c1C(=O)Nc1ccc(Br)cc1Cl
[3]
  AC50: 3.43 µM (active)

## CNS(=O)(=O)c1cccc(C(=O)OCC(=O)c2ccc3c(c2)OCCO3)c1
[4]
  AC50: 8.57 µM (active)

## O=C(CNCc1ccccn1)N1CCc2ccccc2C1
[5]
  IC50: 3.54 µM (active)
[6]
  IC50: 177 µM (active)

## Cc1ccc(CNC(=O)NC2CCCCC2)cc1
[7]
  EC50: > 350 µM (not active)
[8]
  EC50: 55 µM (active)

## CC(c1ccccc1)N1CCN(C(=O)CCl)CC1 (stereo not drawn)
[1]
  CC50: 17.9 µM (active)
[9]
  CC50: 9.03 µM (active)
[10]
  EC50: 43.8 µM (active)

## C=CCn1cccc(/C=C/C(=O)c2ccc(C(C)(C)C)cc2)c1=S
[1]
  CC50: 10.3 µM (active)
[11]
  EC50: 2.56 µM (active)
[12]
  EC50: 4.04 µM (active)
[13]
  AC50: 5.64 µM (active)

## N#Cc1ncc(N=Cc2ccc(N(CCCl)CCCl)cc2)s1
[4]
  AC50: 1.22 µM (active)

## O=C(N/N=C/c1ccccn1)c1cc(-c2ccc(Cl)cc2)nc2ccccc12
[14]
  CC50: 11.8 µM (active)
[9]
  CC50: 14.2 µM (active)
[15]
  EC50: 20.6 µM (active)
[16]
  AC50: 7.9 µM (active)
[17]
  EC50: 1.06 µM (active)

## CSc1ccc(N/N=C(/C#N)S(=O)(=O)C(C)(C)C)cc1
[2]
  IC50: 30.6 µM (active)

## O=C(O)c1ccc(N/N=C/c2ccc(C(F)(F)F)cc2)cc1
[2]
  IC50: 46.3 µM (active)

## COc1ccc2ccccc2c1/C=N/Nc1cccc(C(=O)O)c1
[7]
  EC50: > 350 µM (not active)
[8]
  EC50: 16.8 µM (active)

## CCOc1ccc(-c2c(C(=O)N/N=C/c3cccnc3)nnn2-c2nonc2N)cc1
[7]
  EC50: > 350 µM (not active)
[8]
  EC50: > 350 µM (not active)

## Cc1ccc(C(=O)N/N=C/c2sc(=O)n(Cc3cccc(C(=O)O)c3)c2Cl)cc1
[2]
  IC50: 17.8 µM (active)
[18]
  AC50: 12.6 µM (inconclusive)

## CCCCOc1ccc(CC(=O)NO)cc1 [BUFEXAMAC]
[10]
  EC50: > 195 µM (not active)
[19]
  IC50: 81.2 µM (active)
[2]
  IC50: < 1 µM (active)
[20]
  AC50: 10 µM (inconclusive)
